pIC50: −log10 of the molar value. Like-named read-outs stand apart in the source and are kept apart here.
Tests used:
[1] = system: parental CHO cell line without any transfected receptors; assay: ERK1/2‐phosphorylation, parent CHO cells without transfected receptors; format: cell-based, Chinese hamster; conditions: for ERK1/2-phosphorylation % PDBu: maximal response as % of PDBu (10μM) response
human α1B‐adrenoceptor [2] = molecular target: T1, human α1B‐adrenoceptor (Homo sapiens, UniProt P35368); assay: ERK1/2‐phosphorylation (Surefire Alphascreen), CHO‐α1B cells; format: cell-based
T1 construct: expressed in transfected cells; host or cells: CHO-K1
T1 sequence (P35368 1-520): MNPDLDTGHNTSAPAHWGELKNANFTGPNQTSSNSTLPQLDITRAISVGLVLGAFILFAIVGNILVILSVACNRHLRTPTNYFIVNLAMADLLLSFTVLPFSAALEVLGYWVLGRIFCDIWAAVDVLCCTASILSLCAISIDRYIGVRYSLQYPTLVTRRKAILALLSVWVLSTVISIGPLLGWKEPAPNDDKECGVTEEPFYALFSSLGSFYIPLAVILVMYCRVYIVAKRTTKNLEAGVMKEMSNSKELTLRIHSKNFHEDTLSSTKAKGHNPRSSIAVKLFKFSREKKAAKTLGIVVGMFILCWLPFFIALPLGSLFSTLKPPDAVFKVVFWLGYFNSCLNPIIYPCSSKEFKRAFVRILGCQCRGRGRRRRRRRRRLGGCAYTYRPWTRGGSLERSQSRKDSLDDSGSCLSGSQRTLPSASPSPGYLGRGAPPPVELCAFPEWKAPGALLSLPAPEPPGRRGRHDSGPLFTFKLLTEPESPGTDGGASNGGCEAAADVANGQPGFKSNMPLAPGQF

human α1B‐adrenoceptor [3] = molecular target: T1, human α1B‐adrenoceptor; assay: Intracellular free calcium mobilization, CHO‐α1B cells; format: cell-based; conditions: for Intracellular calcium release % ionomycin: maximal response as % of 10 µM ionomycin response
[4] = molecular target: T2, human α1D‐adrenoceptor (full length) (Homo sapiens, UniProt P25100); assay: ERK1/2‐phosphorylation (Surefire Alphascreen), CHO‐α1D cells; format: cell-based; conditions: for ERK1/2‐phosphorylation % PDBu at 10 µM: response at 10 µM ligand (no EC50 given)
T2 construct: human α1D‐adrenoceptor (full length) were used; expressed in transfected cells; host or cells: CHO-K1
T2 sequence (P25100 1-572): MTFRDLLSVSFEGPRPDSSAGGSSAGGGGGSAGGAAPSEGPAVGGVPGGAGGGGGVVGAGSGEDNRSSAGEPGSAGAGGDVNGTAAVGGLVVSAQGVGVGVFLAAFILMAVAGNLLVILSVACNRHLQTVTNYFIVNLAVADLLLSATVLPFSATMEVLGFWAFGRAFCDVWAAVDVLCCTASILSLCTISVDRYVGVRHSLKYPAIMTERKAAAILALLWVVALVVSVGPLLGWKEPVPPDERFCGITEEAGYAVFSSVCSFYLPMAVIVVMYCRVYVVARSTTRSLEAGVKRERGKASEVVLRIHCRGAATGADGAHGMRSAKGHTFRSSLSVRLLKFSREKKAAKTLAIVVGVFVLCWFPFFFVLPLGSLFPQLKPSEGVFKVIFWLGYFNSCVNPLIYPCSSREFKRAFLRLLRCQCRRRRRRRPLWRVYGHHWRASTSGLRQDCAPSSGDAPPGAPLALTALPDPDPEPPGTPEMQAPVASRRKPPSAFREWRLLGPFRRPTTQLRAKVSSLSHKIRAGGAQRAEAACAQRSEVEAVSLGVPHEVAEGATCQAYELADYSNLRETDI

[5] = molecular target: T2, human α1D‐adrenoceptor (full length); assay: Intracellular free calcium mobilization, CHO‐α1D cells; format: cell-based; conditions: for Intracellular calcium release % ionomycin: maximal response as % of 10 µM ionomycin
human α1A‐adrenoceptor [6] = molecular target: T3, human α1A‐adrenoceptor (Homo sapiens, UniProt P35348); assay: Intracellular free calcium mobilization, CHO‐α1A cells; format: cell-based
T3 construct: expressed in transfected cells; host or cells: CHO-K1
T3 sequence (P35348 1-466): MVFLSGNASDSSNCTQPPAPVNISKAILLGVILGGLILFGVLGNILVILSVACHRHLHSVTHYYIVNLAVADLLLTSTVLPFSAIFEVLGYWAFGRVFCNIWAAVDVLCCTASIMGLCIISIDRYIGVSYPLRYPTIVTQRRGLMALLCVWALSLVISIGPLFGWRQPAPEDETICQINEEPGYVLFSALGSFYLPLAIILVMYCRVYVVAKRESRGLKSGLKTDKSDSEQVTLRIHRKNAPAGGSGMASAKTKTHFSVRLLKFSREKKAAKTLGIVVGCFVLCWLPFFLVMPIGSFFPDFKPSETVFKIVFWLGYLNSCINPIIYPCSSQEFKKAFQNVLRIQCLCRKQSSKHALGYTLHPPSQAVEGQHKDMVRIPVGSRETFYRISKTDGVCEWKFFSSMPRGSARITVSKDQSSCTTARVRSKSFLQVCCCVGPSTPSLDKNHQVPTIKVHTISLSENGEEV

human α1A‐adrenoceptor [7] = molecular target: T3, human α1A‐adrenoceptor; assay: ^3H‐prazosin whole‐cell radioligand binding, CHO‐α1A cells; conditions: for Log KD α1A, ^3H‐prazosin whole cell binding: given as log KD (negative), mean ± SEM
human α1B‐adrenoceptor [8] = molecular target: T1, human α1B‐adrenoceptor; assay: ^3H‐prazosin whole‐cell radioligand binding, CHO‐α1B cells; conditions: CHO‐α1B cells; for Log KD, ^3H‐prazosin binding: whole‐cell binding (from Table 1), given as log KD (negative numbers); for Log KD α1B, ^3H‐prazosin whole cell binding: given as log KD (negative), mean ± SEM
[9] = molecular target: T2, human α1D‐adrenoceptor (full length); assay: ^3H‐prazosin whole‐cell radioligand binding, CHO‐α1D cells; conditions: for Log KD α1D, ^3H‐prazosin whole cell binding: given as log KD (negative), mean ± SEM, 'early plateau' = specific binding not fully inhibited; for 3H‐prazosin binding Log KD: whole‐cell binding (from Table 1), log values given negative
[10] = CHO‐α1D cells, log values given negative
[11] = CHO‐α1B cells, given as log EC50 (negative numbers)
[12] = CHO‐α1D cells, maximal response as % of PDBu
[13] = CHO cells without transfected receptors, mean ± s.e.m.
[14] = higher affinity for α1A than α1B

## CCCC(=O)O[C@@H]1[C@@H](C)[C@@]2(O)[C@@H](C=C(CO)C[C@]3(O)C(=O)C(C)=C[C@@H]23)[C@@H]2C(C)(C)[C@]12OC(=O)CCC [PDBu, Phorbol 12,13‐dibutyrate]
[1]
  ERK1/2‐phosphorylation response fold over basal: 7.5 ± 0.9 fold over basal

## CN[C@@H](C)[C@H](O)c1ccccc1 [Epdedrine]
Human α1B‐adrenoceptor [2]
  ERK1/2‐phosphorylation % PDBu: 19.1 ± 4.0%
  ERK1/2‐phosphorylation Log EC50: −4.67 ± 0.17
Human α1B‐adrenoceptor [3]
  Intracellular calcium release % Ionomycin at 100 µM: 18.5 ± 2.9%

## O=C1Cc2cc(CCN3CCN(c4nsc5ccccc45)CC3)c(Cl)cc2N1 [Ziprasidone]
[4]; CHO‐α1D cells
  ERK1/2‐phosphorylation % PDBu at 10 µM: 4.6 ± 2.7%
[5]; [10]
  Intracellular calcium release Log EC50: No response
[5]; CHO‐α1D cells
  Intracellular calcium release % ionomycin: No response

## C[C@](N)(Cc1ccc(O)c(O)c1)C(=O)O [Methyldopa]
Human α1B‐adrenoceptor [3]; [11]
  Intracellular calcium release Log EC50: No response
Human α1B‐adrenoceptor [3]; CHO‐α1B cells
  Intracellular calcium release % ionomycin: No response
Human α1A‐adrenoceptor [6]; CHO‐α1A cells, given as log EC50 (negative)
  Intracellular calcium release Log EC50: No response
Human α1A‐adrenoceptor [6]; CHO‐α1A cells, maximal response as % of 10 µM ionomycin
  Intracellular calcium release % ionomycin: No response
[4]; [10]
  ERK1/2‐phosphorylation Log EC50: No response
[4]; [12]
  ERK1/2‐phosphorylation % PDBu: No response
Human α1A‐adrenoceptor [7]; CHO‐α1A cells
  Log KD α1A, ^3H‐prazosin whole cell binding: No binding
Human α1B‐adrenoceptor [8]
  Log KD, ^3H‐prazosin binding: No binding
  Log KD α1B, ^3H‐prazosin whole cell binding: No binding
[5]; [10]
  Intracellular calcium release Log EC50: No response
[5]; CHO‐α1D cells
  Intracellular calcium release % ionomycin: No response
[9]; CHO‐α1D cells, whole‐cell binding, given as IC50 > log value
  pIC50: < 4.00
[9]; CHO‐α1D cells
  Log KD α1D, ^3H‐prazosin whole cell binding: No binding
[1]; [13]
  ERK1/2-phosphorylation % PDBu: No response
  ERK1/2-phosphorylation Log EC50: No response

## Cc1sc(C)c2c1CCC=C2c1cnc[nH]1.O=C(O)/C=C\C(=O)O [T‐CG 1000]
Human α1B‐adrenoceptor [3]; [11]
  Intracellular calcium release Log EC50: No response
Human α1B‐adrenoceptor [3]; CHO‐α1B cells
  Intracellular calcium release % ionomycin: No response
Human α1A‐adrenoceptor [6]; CHO‐α1A cells, response at 10 μM ligand, no EC50 obtained
  Intracellular calcium release % ionomycin at 10 µM: 21.0 ± 1.9%
[4]; CHO‐α1D cells
  ERK1/2‐phosphorylation % PDBu at 10 µM: 16.3 ± 5.9%
Human α1A‐adrenoceptor [7]; CHO‐α1A cells
  Log KD α1A, ^3H‐prazosin whole cell binding: −5.96 ± 0.05
Human α1A‐adrenoceptor [7]; [14]
  Affinity selectivity ratio α1A vs α1B: 6.0 fold
Human α1A‐adrenoceptor [7]; higher affinity for α1A than α1D
  Affinity selectivity ratio α1A vs α1D: 1.1 fold
Human α1B‐adrenoceptor [8]
  Log KD, ^3H‐prazosin binding: −5.18
  Log KD α1B, ^3H‐prazosin whole cell binding: −5.18 ± 0.06
[5]; [10]
  Intracellular calcium release Log EC50: No response
[5]; CHO‐α1D cells
  Intracellular calcium release % ionomycin: No response
[9]; CHO‐α1D cells
  3H‐prazosin binding Log KD: −5.91
  Log KD α1D, ^3H‐prazosin whole cell binding: −5.91 ± 0.12
[9]; higher affinity for α1D than α1B
  Affinity selectivity ratio α1B vs α1D: 5.4 fold

## O=C1Cc2cc(CCN3CCN(c4nsc5ccccc45)CC3)c(Cl)cc2N1 [ziprasidone]
[1]; [13]
  ERK1/2-phosphorylation % PDBu: No response
  ERK1/2-phosphorylation Log EC50: No response

## CCN1CCc2nc(N)oc2CC1 [BHT933]
Human α1B‐adrenoceptor [3]; CHO‐α1B cells, response at 100 µM ligand (no EC50 given), % of ionomycin response
  Intracellular calcium release % Ionomycin at 100 µM: 16.6 ± 2.1%
Human α1A‐adrenoceptor [6]; CHO‐α1A cells, response at 100 μM ligand, no EC50 obtained
  Intracellular calcium release % Ionomycin at 100 µM: 25.5 ± 3.7%
[4]; [10]
  ERK1/2‐phosphorylation Log EC50: No response
[4]; [12]
  ERK1/2‐phosphorylation % PDBu: No response
Human α1A‐adrenoceptor [7]; CHO‐α1A cells, apparent KD: maximum concentration did not inhibit all specific binding, IC50 extrapolated
  Log KD α1A (apparent), ^3H‐prazosin whole cell binding: −3.60 ± 0.06^apparent
Human α1A‐adrenoceptor [7]; [14]
  Affinity selectivity ratio α1A vs α1B: >4.0 fold
Human α1B‐adrenoceptor [8]
  Log KD, ^3H‐prazosin binding: No binding
  Log KD α1B, ^3H‐prazosin whole cell binding: No binding
[5]; [10]
  Intracellular calcium release Log EC50: No response
[5]; CHO‐α1D cells
  Intracellular calcium release % ionomycin: No response
[9]; CHO‐α1D cells
  3H‐prazosin binding Log KD: −3.70
[9]; CHO‐α1D cells, apparent KD: maximum concentration did not inhibit all specific binding, IC50 extrapolated
  Log KD α1D (apparent), ^3H‐prazosin whole cell binding: −3.70 ± 0.18^apparent
[9]; higher affinity for α1D than α1A
  Affinity selectivity ratio α1A vs α1D: 1.3 fold

## Cc1ccc(/N=C/N(C)/C=N/c2ccc(C)cc2C)c(C)c1 [Amitraz]
Human α1B‐adrenoceptor [3]
  Intracellular calcium release Log EC50: No response
Human α1A‐adrenoceptor [6]
  Intracellular calcium release Log EC50: No response
[4]
  ERK1/2‐phosphorylation % PDBu: No response
  ERK1/2‐phosphorylation Log EC50: No response
Human α1A‐adrenoceptor [7]
  Affinity selectivity ratio α1A vs α1B: >33.1 fold
[5]
  Intracellular calcium release Log EC50: No response
[9]
  Affinity selectivity ratio α1B vs α1D: >12.0 fold
[1]
  ERK1/2-phosphorylation Log EC50: No response
[1]; [13]
  ERK1/2-phosphorylation % PDBu: No response
